# pIC50: −log10 of the molar value.
# Experiments:
# Assay type in all cases: cell-based
# [1] = tested on: MV4-11; assay: Cell viability assay (CellTiterGlo), MV4-11; conditions: Homo sapiens; MV4-11, origin AML; 72 h
# Experimental: (§1) The test compounds and bortezomib (positive control) were solved in DMSO as 5 mM solution, which was aliquoted, frozen at −20° C. and thawed just prior addition by nanodrop dispensing. Compound treatment of cells started one day after seeding with a final DMSO concentration of 0.1% and was generally performed by nanodrop-dispensing using a Tecan Dispenser. 0.1% DMSO (solvent) and Staurosporine (1.0E-05 M) served as high control (100% viability) and low control (0% viability), respectively.
# (§2) Cells were cultured in different media. For the assays, cells were seeded in white cell culture-treated flat and clear bottom multiwell plates and incubated at 37° C. before the compound was added. After incubation for 72 h at 37° C. at 5% or 10% CO2 dependent on the medium, cell plates were equilibrated to room temperature for one hour, CellTiterGlo reagent (Promega) was added and luminescence was measured ap-proximately an hour later using a luminometer.
# (§3) Raw data were converted into percent cell viability relative to the high and low control, which were set to 100% and 0%, respectively. IC50 calculation was performed using GraphPad Prism software with a variable slope sigmoidal response fitting model using 0% viability as bottom constraint and 100% viability as top constraint.
# [2] = tested on: A375; assay: Cell viability assay (CellTiterGlo), A375; conditions: Homo sapiens, A-375; A375, origin Skin; 72 h
# Experimental: as §1, §2, §3
# [3] = tested on: DU-145; assay: Cell viability assay (CellTiterGlo), DU-145; conditions: Homo sapiens; DU-145, origin Prostate; 72 h
# Experimental: as §1, §2, §3
# [4] = tested on: H460; assay: Cell viability assay (CellTiterGlo), H460; conditions: Homo sapiens, NCI-H460; H460, origin NSCLC; 72 h
# Experimental: as §1, §2, §3
# [5] = tested on: NCI-H2286; assay: Cell viability assay (CellTiterGlo), NCI-H2286; conditions: Homo sapiens; NCI-H2286, origin NSCLC; 72 h
# Experimental: as §1, §2, §3
structure (smiles),measurement,setting,value
"CC(C)C[C@H](NC(=O)[C@H](Cc1ccccc1)NC(=O)c1cnccn1)B(O)O [Bortezomib, bortezomib]",pIC50,[1],8.42
same,pIC50,[2],8.07
same,pIC50,[3],7.96
same,pIC50,[4],7.80
same,pIC50,[5],8.18
